The experiment has as its system HCV replicon cells (1b). The experiment can be described thus: Cell-Based HCV Replicon Assay. The protocol:
To measure cell-based anti-HCV activity of selected compounds of the present invention, replicon cells were seeded at 5000 cells/well in 96-well collagen I-coated Nunc plates in the presence of the test compound. Various concentrations of test compound, typically in 10 serial 2-fold dilutions, were added to the assay mixture, with the starting concentration ranging from 250 μM to 1 μM. The final concentration of dimethylsulfoxide was 0.5%, fetal bovine serum was 5%, in the assay media. Cells were harvested on day 3 by the addition of 1× cell lysis buffer (Ambion cat #8721). The replicon RNA level was measured using real time PCR (Taqman assay). The amplicon was located in 5B. The PCR primers were: 5B.2F, […] (SEQ ID. NO. 1); 5B.2R, […] (SEQ ID. NO. 2); the probe sequence was FAM-labeled […] (SEQ ID. NO. 3). GAPDH RNA was used as endogenous control and was amplified in the same reaction as NS5B (multiplex PCR) using primers and VIC-labeled probe recommended by the manufacturer (PE Applied Biosystem). The real-time RT-PCR reactions were run on ABI PRISM 7900HT Sequence Detection System using the following program: 48° C. for 30 minutes, 95° C. for 10 minutes, 40 cycles of 95° C. for 15 sec, 60° C. for 1 minute. The ΔCT values (CT5B-CTGAPDH) were plotted against the concentration of test compound and fitted to the sigmoid dose-response model using XLfit4 (MDL). […] Alternatively, to quantitate the absolute amount of replicon RNA, a standard curve was established by including serially diluted T7 transcripts of replicon RNA in the Taqman assay. All Taqman reagents were from PE Applied Biosystems. Such an assay procedure was described in detail in e.g. Malcolm et al., Antimicrobial Agents and Chemotherapy 50: 1013-1020 (2006).

Where [1] appears, read: Hepatitis C virus, 72 h, replicon RNA level by real time PCR (Taqman), cells harvested on day 3; read-out: 1b EC50.
Setting [2] is: Hepatitis C virus, 72 h, read-out: 1b EC50.
Where [3] appears, read: replicon RNA level by real time PCR (Taqman), cells harvested on day 3; read-out: 1b EC50.

The record followed here is patent publication US9242988B2, “2′-cyano substituted nucleoside derivatives and methods of use thereof for the treatment of viral diseases” (Merck Sharp & Dohme Corp., priority 2012, dated 2016).

Like-named read-outs stand apart in the source and are kept apart here.

`CC(C)OC(=O)COP(=O)(N[C@@H](C)C(=O)OC(C)C)OC[C@H]1O[C@@H](c2ccc3c(N)ncnn23)[C@](C)(C#N)[C@@H]1O` (single isomer, unassigned) [Compound 12]: under setting [1], the EC50 was over 100 µM.

Take `CC(C)(C)COP1(=O)OC[C@H]2O[C@@H](c3ccc4c(N)ncnn34)[C@](C)(C#N)[C@@H]2O1` (single isomer, unassigned) [Compound 18]: the EC50 under setting [1] was determined as 33 µM.

As for `CC(C)OC(=O)[C@H](C)NP(=O)(OC[C@H]1O[C@@H](c2ccc3c(N)ncnn23)[C@](C)(C#N)[C@@H]1O)Oc1ccccc1` (single isomer, unassigned) [Compound 11], the half-maximal effective concentration (EC50) under setting [2] was 35 µM.

`CC(C)OP1(=O)OC[C@H]2O[C@@H](c3cnc4c(N)ncnn34)[C@](C)(C#N)[C@@H]2O1` (single isomer, unassigned) [Compound 20]: the concentration for a half-maximal effect (EC50) under setting [1] turned out to be 77 µM.

`CC(C)(C)COP1(=O)OC[C@H]2O[C@@H](c3ccc4c(N)ncnn34)[C@](C)(C#N)[C@@H]2O1` (single isomer, unassigned) [Compound 19]: under setting [3], the EC50 worked out at 46 µM.

Turning to `CC(C)OP1(=O)OC[C@H]2O[C@@H](c3cnc4c(N)ncnn34)[C@](C)(C#N)[C@@H]2O1` (single isomer, unassigned) [Compound 21], the half-maximal effective concentration (EC50) under setting [3] was over 100 µM.

For the molecule `CC(C)OC(=O)[C@H](C)NP(=O)(OC[C@H]1O[C@@H](c2cnc3c(N)ncnn23)[C@](C)(C#N)[C@@H]1O)Oc1ccccc1` (single isomer, unassigned) [Compound 15], the half-maximal effective concentration (EC50) (read-out: 1b EC50; replicon RNA level by real time PCR (Taqman), cells harvested on day 3) is over 100 µM.

In the case of `CC(C)OC(=O)[C@H](C)NP(=O)(OC[C@H]1O[C@@H](c2cnc3c(N)ncnn23)[C@](C)(C#N)[C@@H]1O)Oc1ccccc1` (single isomer, unassigned) [Compound 14], under setting [2], the EC50 was over 100 µM.
